According to patent US20250213555A1, “SUBSTITUTED TETRAHYDROFURAN ANALOGS AS MODULATORS OF SODIUM CHANNELS” (VERTEX PHARMACEUTICALS INCORPORATED, priority 2021, published 2025):
pIC50: −log10 of the molar value.

target: human Nav 1.8 (Homo sapiens, UniProt Q9Y5Y9); assay: E-VIPR assay detecting and measuring Nav inhibition properties; format: cell-based; details: HEK cells expressing a truncated form of human Nav 1.8; assay performed in the presence of human serum (compound numbers followed by "*"); read-out: measured IC50 value in the E-VIPR Assay
Sequence (Q9Y5Y9 126-399 limits assumed): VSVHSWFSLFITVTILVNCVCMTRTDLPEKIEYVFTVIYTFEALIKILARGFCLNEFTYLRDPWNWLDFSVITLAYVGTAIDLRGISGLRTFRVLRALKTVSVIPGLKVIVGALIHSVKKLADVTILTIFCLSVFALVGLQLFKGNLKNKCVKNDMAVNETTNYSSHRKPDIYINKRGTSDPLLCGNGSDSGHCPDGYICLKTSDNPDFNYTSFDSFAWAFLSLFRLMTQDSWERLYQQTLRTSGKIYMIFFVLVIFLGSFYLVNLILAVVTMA
Sequence (Q9Y5Y9 660-890 limits assumed): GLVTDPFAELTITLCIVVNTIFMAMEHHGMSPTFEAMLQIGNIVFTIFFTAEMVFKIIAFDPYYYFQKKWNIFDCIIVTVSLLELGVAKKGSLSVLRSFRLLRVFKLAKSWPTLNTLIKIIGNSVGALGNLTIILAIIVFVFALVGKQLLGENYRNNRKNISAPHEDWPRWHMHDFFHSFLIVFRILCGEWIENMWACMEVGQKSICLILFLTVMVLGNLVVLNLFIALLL
Sequence (Q9Y5Y9 1148-1722 limits assumed): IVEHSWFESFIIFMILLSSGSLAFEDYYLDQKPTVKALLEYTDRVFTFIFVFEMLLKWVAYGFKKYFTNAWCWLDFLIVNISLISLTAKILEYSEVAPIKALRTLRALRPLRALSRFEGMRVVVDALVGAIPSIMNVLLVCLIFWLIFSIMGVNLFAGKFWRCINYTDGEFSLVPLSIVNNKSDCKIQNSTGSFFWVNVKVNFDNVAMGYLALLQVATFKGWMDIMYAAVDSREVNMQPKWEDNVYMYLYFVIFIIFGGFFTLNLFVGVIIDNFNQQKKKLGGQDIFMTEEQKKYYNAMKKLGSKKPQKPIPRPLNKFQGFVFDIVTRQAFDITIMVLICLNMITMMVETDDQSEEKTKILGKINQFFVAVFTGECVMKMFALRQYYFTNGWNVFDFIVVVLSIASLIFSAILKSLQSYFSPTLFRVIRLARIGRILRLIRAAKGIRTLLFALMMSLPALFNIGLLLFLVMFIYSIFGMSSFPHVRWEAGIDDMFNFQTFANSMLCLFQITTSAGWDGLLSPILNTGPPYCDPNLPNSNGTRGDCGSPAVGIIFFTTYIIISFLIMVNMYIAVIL
Procedure, shortened: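 Nav inhibition was read by E-VIPR: cells were electrically stimulated while coumarin/oxonol FRET emissions were recorded. Cells were HEK expressing a truncated human Nav 1.8 and co-transduced with KIR2.1, and were assayed in 25% final human serum.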

pIC50 | Compound
≤ 6.00 | Cc1c(F)ccc([C@H]2C[C@@](C)(C(F)(F)F)O[C@@H]2C(=O)Nc2ccnc(C(N)=O)c2)c1OCCO (single isomer, unassigned) [Compound 36]

same assay, conditions: HEK cells expressing a truncated form of human Nav 1.8; compound numbers without "*" (not marked as run in the presence of human serum); read-out: measured IC50 value in the E-VIPR Assay

pIC50 | Compound
> 8.00 | C[C@H]1[C@@H](c2ccc(F)c(F)c2OCCCO)[C@H](C(=O)Nc2ccnc(C(N)=O)c2)O[C@@]1(C)C(F)(F)F [Compound 72, 4-((2R,3S,4S,5R)-3-(3,4-difluoro-2-(3-hydroxypropoxy)phenyl)-4,5-dimethyl-5-(trifluoromethyl)tetrahydrofuran-2-carboxamido)picolinamide]
> 8.00 | C[C@H]1[C@@H](c2ccc(F)c(F)c2OCCc2cn(C)cn2)[C@H](C(=O)Nc2ccnc(C(N)=O)c2)O[C@@]1(C)C(F)(F)F [Compound 85, 4-((2R,3S,4S,5R)-3-(3,4-difluoro-2-(2-(1-methyl-1H-imidazol-4-yl)ethoxy)phenyl)-4,5-dimethyl-5-(trifluoromethyl)tetrahydrofuran-2-carboxamido) picolinamide]
6.00 to 7.00 | C[C@H]1[C@@H](c2ccc(C(F)F)nc2OCCO)[C@H](C(=O)Nc2ccnc(C(N)=O)c2)O[C@@]1(C)C(F)(F)F [Compound 208, 4-((2R,3S,4S,5R)-3-(6-(difluoromethyl)-2-(2-hydroxyethoxy)pyridin-3-yl)-4,5-dimethyl-5-(trifluoromethyl)tetrahydrofuran-2-carboxamido) picolinamide]
≤ 6.00 | COCc1c(F)ccc([C@@H]2[C@@H](C(=O)Nc3ccnc(C(N)=O)c3)O[C@](C)(C(F)(F)F)[C@@H]2C)c1OC (single isomer, unassigned) [Compound 139]
7.00 to 8.00 | C[C@H]1[C@@H](c2ccc(F)c(F)c2OCCN[C@H]2CCOC2)[C@H](C(=O)Nc2ccnc(C(N)=O)c2)O[C@@]1(C)C(F)(F)F [Compound 117, 4-((2R,3S,4S,5R)-3-(3,4-difluoro-2-(2-(((S)-tetrahydrofuran-3-yl)amino)ethoxy)phenyl)-4,5-dimethyl-5-(trifluoromethyl)tetrahydrofuran-2-carboxamido)picolinamide]
> 8.00 | C[C@H]1[C@@H](c2ccc(F)c(F)c2OCc2cnco2)[C@H](C(=O)Nc2ccnc(C(N)=O)c2)O[C@@]1(C)C(F)(F)F [Compound 6]
> 8.00 | C[C@H]1[C@@H](c2ccc(F)c(F)c2COC2COC2)[C@H](C(=O)Nc2ccnc(C(N)=O)c2)O[C@@]1(C)C(F)(F)F [Compound 211, 4-((2R,3S,4S,5R)-3-(3,4-difluoro-2-((oxetan-3-yloxy)methyl)phenyl)-4,5-dimethyl-5-(trifluoromethyl)tetrahydrofuran-2-carboxamido) picolinamide]
7.00 to 8.00 | COc1c([C@H]2[C@H](C(=O)Nc3ccnc(C(N)=O)c3)O[C@@](C)(C(F)(F)F)[C@H]2C)ccc(O)c1F [Compound 206, 4-((2R,3S,4S,5R)-3-(3-fluoro-4-hydroxy-2-methoxyphenyl)-4,5-dimethyl-5-(trifluoromethyl)tetrahydrofuran-2-carboxamido) picolinamide]
> 8.00 | COc1c([C@H]2[C@H](C(=O)Nc3ccnc(C(=O)N[C@H]4CCNC4)c3)O[C@@](C)(C(F)(F)F)[C@H]2C)ccc(F)c1F [Compound 238, 4-((2R,3S,4S,5R)-3-(3,4-difluoro-2-methoxyphenyl)-4,5-dimethyl-5-(trifluoromethyl)tetrahydrofuran-2-carboxamido)-N-((S)-pyrrolidin-3-yl)picolinamide]
7.00 to 8.00 | COc1c([C@H]2[C@H](C(=O)Nc3ccnc(C(=O)N4C[C@@H](C)N(C)C[C@H]4C)c3)O[C@@](C)(C(F)(F)F)[C@H]2C)ccc(F)c1F [Compound 289, (2R,3S,4S,5R)-3-(3,4-difluoro-2-methoxyphenyl)-4,5-dimethyl-5-(trifluoromethyl)-N-(2-((2R,5R)-2,4,5-trimethylpiperazine-1-carbonyl)pyridin-4-yl)tetrahydrofuran-2-carboxamide]
6.00 to 7.00 | C[C@H]1[C@@H](c2ccc(F)c(F)c2OCC2(F)CNC2)[C@H](C(=O)Nc2ccnc(C(N)=O)c2)O[C@@]1(C)C(F)(F)F [Compound 106, 4-((2R,3S,4S,5R)-3-(3,4-difluoro-2-((3-fluoroazetidin-3-yl)methoxy)phenyl)-4,5-dimethyl-5-(trifluoromethyl)tetrahydrofuran-2-carboxamido)picolinamide]
7.00 to 8.00 | C[C@H](COc1c([C@H]2[C@H](C(=O)Nc3ccnc(C(N)=O)c3)O[C@@](C)(C(F)(F)F)[C@H]2C)ccc(F)c1F)N1CC2(COC2)C1 [Compound 42, 4-((2R,3S,4S,5R)-3-(2-((R)-2-(2-oxa-6-azaspiro[3.3]heptan-6-yl)propoxy)-3,4-difluorophenyl)-4,5-dimethyl-5-(trifluoromethyl)tetrahydrofuran-2-carboxamido)picolinamide]
> 8.00 | CN[C@H]1CN(C(=O)c2cc(NC(=O)[C@@H]3O[C@@](C)(C(F)(F)F)[C@@H](C)[C@H]3c3ccc(F)c(F)c3OC)ccn2)C[C@@H]1OC [Compound 256, (2R,3S,4S,5R)-3-(3,4-difluoro-2-methoxyphenyl)-N-(2-((3S,4S)-3-methoxy-4-(methylamino)pyrrolidine-1-carbonyl)pyridin-4-yl)-4,5-dimethyl-5-(trifluoromethyl)tetrahydrofuran-2-carboxamide]
> 8.00 | COc1c([C@H]2[C@H](C(=O)Nc3ccnc(C(=O)NCCO)c3)O[C@@](C)(C(F)(F)F)[C@H]2C)ccc(F)c1F [Compound 221, 4-((2R,3S,4S,5R)-3-(3,4-difluoro-2-methoxyphenyl)-4,5-dimethyl-5-(trifluoromethyl)tetrahydrofuran-2-carboxamido)-N-(2-hydroxyethyl)picolinamide]
> 8.00 | C[C@H]1[C@@H](c2ccc(F)c3c2CCC3(F)F)[C@H](C(=O)Nc2ccnc(C(N)=O)c2)O[C@@]1(C)C(F)(F)F (single isomer, unassigned) [Compound 149]
7.00 to 8.00 | COc1c([C@H]2[C@H](C(=O)Nc3ccnc(C(=O)O)c3)O[C@@](C)(C(F)(F)F)[C@H]2C)ccc(F)c1F [Compound 214, 4-((2R,3S,4S,5R)-3-(3,4-difluoro-2-methoxyphenyl)-4,5-dimethyl-5-(trifluoromethyl)tetrahydrofuran-2-carboxamido)picolinic acid]
> 8.00 | C[C@H]1[C@@H](c2ccc(F)c(F)c2OCCCN2CCOCC2)[C@H](C(=O)Nc2ccnc(C(N)=O)c2)O[C@@]1(C)C(F)(F)F [Compound 62, 4-((2R,3S,4S,5R)-3-(3,4-difluoro-2-(3-morpholinopropoxy)phenyl)-4,5-dimethyl-5-(trifluoromethyl)tetrahydrofuran-2-carboxamido)picolinamide]
> 8.00 | CC1C(c2ccc(F)c(F)c2OCC2CC(O)C2)C(C(=O)Nc2cccc(C(N)=O)c2)OC1(C)C(F)(F)F (single isomer, unassigned) [Compound 197, rel-(2R*,3S*,4S*,5R*)-N-(3-carbamoylphenyl)-3-(3,4-difluoro-2-(((1r,3S)-3-hydroxycyclobutyl)methoxy)phenyl)-4,5-dimethyl-5-(trifluoromethyl)tetrahydrofuran-2-carboxamide]
7.00 to 8.00 | CNC(=O)c1cc(NC(=O)[C@@H]2O[C@@](C)(C(F)(F)F)[C@@H](C)[C@H]2c2ccc(F)c(F)c2OCCN2CC3(COC3)C2)ccn1 [Compound 136, 4-((2R,3S,4S,5R)-3-(2-(2-(2-oxa-6-azaspiro[3.3]heptan-6-yl)ethoxy)-3,4-difluorophenyl)-4,5-dimethyl-5-(trifluoromethyl)tetrahydrofuran-2-carboxamido)-N-methylpicolinamide]
> 8.00 | CNCCN(C)C(=O)c1cc(NC(=O)[C@@H]2O[C@@](C)(C(F)(F)F)[C@@H](C)[C@H]2c2ccc(F)c(F)c2OC)ccn1 [Compound 234, 4-((2R,3S,4S,5R)-3-(3,4-difluoro-2-methoxyphenyl)-4,5-dimethyl-5-(trifluoromethyl)tetrahydrofuran-2-carboxamido)-N-methyl-N-(2-(methylamino)ethyl)picolinamide]
> 8.00 | C[C@H]1[C@@H](c2ccc(F)c(F)c2OCCN2CC3(CCO3)C2)[C@H](C(=O)Nc2ccnc(C(N)=O)c2)O[C@@]1(C)C(F)(F)F [Compound 57, 4-((2R,3S,4S,5R)-3-(2-(2-(1-oxa-6-azaspiro[3.3]heptan-6-yl)ethoxy)-3,4-difluorophenyl)-4,5-dimethyl-5-(trifluoromethyl)tetrahydrofuran-2-carboxamido)picolinamide]
> 8.00 | C[C@H]1[C@@H](c2ccc(F)c(F)c2OCC2CCOC2)[C@H](C(=O)Nc2ccnc(C(N)=O)c2)O[C@@]1(C)C(F)(F)F (single isomer, unassigned) [Compound 67]
> 8.00 | C[C@H]1[C@@H](c2ccc(F)c(F)c2OCCN2CC3CCC2CO3)[C@H](C(=O)Nc2ccnc(C(N)=O)c2)O[C@@]1(C)C(F)(F)F (stereo partly drawn) [Compound 124, 4-((2R,3S,4S,5R)-3-(2-(2-(2-oxa-5-azabicyclo[2.2.2]octan-5-yl)ethoxy)-3,4-difluorophenyl)-4,5-dimethyl-5-(trifluoromethyl)tetrahydrofuran-2-carboxamido)picolinamide]
> 8.00 | C[C@H]1[C@@H](c2ccc(F)c(F)c2OCC2(F)COC2)[C@H](C(=O)Nc2ccnc(C(N)=O)c2)O[C@@]1(C)C(F)(F)F [Compound 64, 4-((2R,3S,4S,5R)-3-(3,4-difluoro-2-((3-fluorooxetan-3-yl)methoxy)phenyl)-4,5-dimethyl-5-(trifluoromethyl)tetrahydrofuran-2-carboxamido)picolinamide]

Compound | pIC50
C[C@H]1[C@@H](c2ccc(F)c(F)c2OCCN2C3CCC2COC3)[C@H](C(=O)Nc2ccnc(C(N)=O)c2)O[C@@]1(C)C(F)(F)F [Compound 113, 4-((2R,3S,4S,5R)-3-(2-(2-(3-oxa-8-azabicyclo[3.2.1]octan-8-yl)ethoxy)-3,4-difluorophenyl)-4,5-dimethyl-5-(trifluoromethyl)tetrahydrofuran-2-carboxamido)picolinamide] | 7.00 to 8.00
